From the kinase profiling compilation of Christmann-Franck et al. (2016)

Assays:
Experiment in all cases: KINOMEscan competition binding
Settings in all cases: compound 10.0 µM
[1] = molecular target: ANKK1 (human) (UniProt Q8NFD2)
[2] = molecular target: CAMK4 (human) (UniProt Q16566)
[3] = molecular target: CDC42BPG (human) (UniProt Q6DT37)
[4] = molecular target: CDK11B (human) (UniProt P21127)
[5] = molecular target: CSNK2A2 (human) (UniProt P19784)
[6] = molecular target: DAPK3 (human) (UniProt O43293)
[7] = molecular target: DCLK1 (human) (UniProt O15075)
Chain of DCLK1 (human) (O15075 whole entry, looked up): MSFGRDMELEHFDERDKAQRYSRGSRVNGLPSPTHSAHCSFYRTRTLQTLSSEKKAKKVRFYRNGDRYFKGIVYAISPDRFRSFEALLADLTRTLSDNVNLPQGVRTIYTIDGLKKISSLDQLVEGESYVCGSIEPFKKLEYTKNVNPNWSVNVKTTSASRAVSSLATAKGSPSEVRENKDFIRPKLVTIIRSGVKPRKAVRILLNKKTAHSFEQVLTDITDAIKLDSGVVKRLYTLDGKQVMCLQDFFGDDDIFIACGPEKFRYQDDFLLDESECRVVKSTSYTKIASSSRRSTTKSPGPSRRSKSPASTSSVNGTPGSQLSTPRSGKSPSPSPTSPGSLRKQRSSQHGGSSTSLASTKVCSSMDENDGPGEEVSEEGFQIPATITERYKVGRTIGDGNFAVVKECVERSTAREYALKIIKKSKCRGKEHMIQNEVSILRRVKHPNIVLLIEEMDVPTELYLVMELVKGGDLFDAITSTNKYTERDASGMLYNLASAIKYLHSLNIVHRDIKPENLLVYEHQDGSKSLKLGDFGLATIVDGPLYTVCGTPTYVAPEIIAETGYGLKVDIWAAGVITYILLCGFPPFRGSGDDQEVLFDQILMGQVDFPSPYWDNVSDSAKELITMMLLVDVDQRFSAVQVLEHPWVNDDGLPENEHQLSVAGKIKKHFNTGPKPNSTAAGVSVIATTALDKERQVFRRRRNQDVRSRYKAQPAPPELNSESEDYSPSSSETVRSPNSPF

[8] = molecular target: DYRK1B (human) (UniProt Q9Y463)
[9] = molecular target: EPHA1 (human) (UniProt P21709)
[10] = molecular target: EPHA5 (human) (UniProt P54756)
[11] = molecular target: EPHB1 (human) (UniProt P54762)
[12] = molecular target: ERN1 (human) (UniProt O75460)
Chain of ERN1 (human) (O75460 whole entry, looked up): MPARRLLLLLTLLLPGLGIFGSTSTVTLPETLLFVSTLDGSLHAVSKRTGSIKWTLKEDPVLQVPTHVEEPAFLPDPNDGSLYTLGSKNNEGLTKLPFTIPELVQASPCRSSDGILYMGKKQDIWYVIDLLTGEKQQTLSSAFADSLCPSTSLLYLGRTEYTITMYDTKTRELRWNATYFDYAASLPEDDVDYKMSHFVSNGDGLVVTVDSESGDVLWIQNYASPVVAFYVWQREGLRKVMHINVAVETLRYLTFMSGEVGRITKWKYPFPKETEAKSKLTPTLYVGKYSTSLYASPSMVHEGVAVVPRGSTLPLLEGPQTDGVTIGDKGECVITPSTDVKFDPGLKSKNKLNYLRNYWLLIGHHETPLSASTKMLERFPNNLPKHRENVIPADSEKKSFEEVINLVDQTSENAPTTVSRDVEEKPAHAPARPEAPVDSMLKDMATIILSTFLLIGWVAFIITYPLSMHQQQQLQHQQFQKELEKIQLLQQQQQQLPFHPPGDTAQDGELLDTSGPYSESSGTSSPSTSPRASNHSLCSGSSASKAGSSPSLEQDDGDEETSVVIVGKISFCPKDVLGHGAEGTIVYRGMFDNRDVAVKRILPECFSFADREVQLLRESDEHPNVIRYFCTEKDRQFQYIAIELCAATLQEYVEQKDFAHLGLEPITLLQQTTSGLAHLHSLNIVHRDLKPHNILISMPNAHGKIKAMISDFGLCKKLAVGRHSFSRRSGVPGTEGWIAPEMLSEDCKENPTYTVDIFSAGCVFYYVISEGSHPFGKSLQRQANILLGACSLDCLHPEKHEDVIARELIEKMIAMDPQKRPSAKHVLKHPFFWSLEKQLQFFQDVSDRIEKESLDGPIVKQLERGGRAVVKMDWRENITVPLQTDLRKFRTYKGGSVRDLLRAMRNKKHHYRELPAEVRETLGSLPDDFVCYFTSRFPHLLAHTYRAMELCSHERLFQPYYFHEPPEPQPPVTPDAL

[13] = molecular target: GRK7 (human) (UniProt Q8WTQ7)
[14] = molecular target: HIPK4 (human) (UniProt Q8NE63)
[15] = molecular target: IKBKB (human) (UniProt O14920)
[16] = molecular target: IRAK3 (human) (UniProt Q9Y616)
[17] = molecular target: KIT (human) (UniProt P10721)
Chain of KIT (human) (P10721 whole entry, looked up): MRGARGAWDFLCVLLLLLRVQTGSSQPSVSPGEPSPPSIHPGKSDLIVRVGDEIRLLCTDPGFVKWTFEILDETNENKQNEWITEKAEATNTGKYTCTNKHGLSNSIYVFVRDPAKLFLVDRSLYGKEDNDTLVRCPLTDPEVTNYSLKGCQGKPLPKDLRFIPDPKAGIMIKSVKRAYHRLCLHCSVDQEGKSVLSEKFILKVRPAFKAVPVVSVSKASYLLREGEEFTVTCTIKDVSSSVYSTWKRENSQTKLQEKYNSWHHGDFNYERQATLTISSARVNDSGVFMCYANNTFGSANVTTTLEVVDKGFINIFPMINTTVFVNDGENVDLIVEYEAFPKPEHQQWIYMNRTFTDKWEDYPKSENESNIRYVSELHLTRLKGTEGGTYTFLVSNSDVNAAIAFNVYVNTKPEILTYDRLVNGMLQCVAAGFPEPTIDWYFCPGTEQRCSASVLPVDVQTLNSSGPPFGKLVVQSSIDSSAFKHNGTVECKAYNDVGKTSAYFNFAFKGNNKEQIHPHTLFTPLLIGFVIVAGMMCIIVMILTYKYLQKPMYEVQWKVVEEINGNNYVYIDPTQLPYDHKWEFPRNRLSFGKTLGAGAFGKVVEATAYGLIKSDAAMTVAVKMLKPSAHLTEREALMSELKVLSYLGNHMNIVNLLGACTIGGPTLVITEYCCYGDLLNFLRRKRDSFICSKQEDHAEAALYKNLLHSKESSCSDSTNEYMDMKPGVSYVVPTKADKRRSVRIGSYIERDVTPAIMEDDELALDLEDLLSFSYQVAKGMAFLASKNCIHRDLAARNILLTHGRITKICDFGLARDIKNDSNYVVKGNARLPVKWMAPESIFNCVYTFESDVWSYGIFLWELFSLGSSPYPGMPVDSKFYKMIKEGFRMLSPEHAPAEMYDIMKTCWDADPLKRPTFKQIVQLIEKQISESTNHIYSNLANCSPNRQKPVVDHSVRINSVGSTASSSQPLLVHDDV

[18] = system: KIT (human), P10721 [L576P]
Chain of KIT (human), P10721 [L576P] (P10721 whole entry L576P, looked up): as the sequence (P10721 whole entry, looked up) above, with L576P counted along it

[19] = molecular target: LRRK2 (human) (UniProt Q5S007)
[20] = molecular target: MAP2K1 (human) (UniProt Q02750)
Chain of MAP2K1 (human) (Q02750 whole entry, looked up): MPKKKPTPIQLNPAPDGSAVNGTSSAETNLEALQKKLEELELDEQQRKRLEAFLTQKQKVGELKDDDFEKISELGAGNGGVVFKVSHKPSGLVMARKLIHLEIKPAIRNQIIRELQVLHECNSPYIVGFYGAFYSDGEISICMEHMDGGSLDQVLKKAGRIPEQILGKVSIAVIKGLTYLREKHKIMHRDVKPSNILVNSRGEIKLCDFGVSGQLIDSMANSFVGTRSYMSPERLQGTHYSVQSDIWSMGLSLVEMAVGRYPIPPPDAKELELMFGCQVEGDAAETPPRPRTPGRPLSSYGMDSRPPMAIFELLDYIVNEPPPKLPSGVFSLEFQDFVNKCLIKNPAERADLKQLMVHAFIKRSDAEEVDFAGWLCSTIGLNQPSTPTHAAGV

[21] = molecular target: MAP2K7 (human) (UniProt O14733)
[22] = molecular target: MAP3K3 (human) (UniProt Q99759)
Chain of MAP3K3 (human) (Q99759 whole entry, looked up): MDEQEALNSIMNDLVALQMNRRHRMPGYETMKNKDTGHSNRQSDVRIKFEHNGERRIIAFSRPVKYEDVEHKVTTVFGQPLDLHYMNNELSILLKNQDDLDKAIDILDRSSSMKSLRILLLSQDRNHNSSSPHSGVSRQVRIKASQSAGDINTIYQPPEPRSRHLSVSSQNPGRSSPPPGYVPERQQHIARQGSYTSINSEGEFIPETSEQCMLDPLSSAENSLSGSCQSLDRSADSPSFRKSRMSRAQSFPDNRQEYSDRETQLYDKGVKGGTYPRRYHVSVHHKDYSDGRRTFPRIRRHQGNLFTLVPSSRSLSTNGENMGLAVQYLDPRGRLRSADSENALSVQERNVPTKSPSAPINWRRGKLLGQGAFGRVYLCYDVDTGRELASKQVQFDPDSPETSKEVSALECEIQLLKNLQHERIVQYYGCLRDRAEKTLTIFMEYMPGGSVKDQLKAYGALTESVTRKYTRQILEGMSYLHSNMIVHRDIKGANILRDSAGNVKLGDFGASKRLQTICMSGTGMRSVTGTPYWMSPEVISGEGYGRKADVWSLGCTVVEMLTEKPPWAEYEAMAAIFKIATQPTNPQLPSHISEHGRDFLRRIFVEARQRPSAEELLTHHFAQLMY

[23] = molecular target: MAPK8 (human) (UniProt P45983)
[24] = molecular target: MARK4 (human) (UniProt Q96L34)
[25] = molecular target: MATK (human) (UniProt P42679)
[26] = molecular target: MTOR (human) (UniProt P42345)
[27] = molecular target: NUAK2 (human) (UniProt Q9H093)
[28] = molecular target: PAK7 (human) (UniProt Q9P286)
[29] = molecular target: PI4KB (human) (UniProt Q9UBF8)
[30] = molecular target: PIK3CG (human) (UniProt P48736)
[31] = molecular target: PIP4K2C (human) (UniProt Q8TBX8)
[32] = molecular target: PLK2 (human) (UniProt Q9NYY3)
[33] = molecular target: PRKCI (human) (UniProt P41743)
[34] = molecular target: RIPK1 (human) (UniProt Q13546)
Chain of RIPK1 (human) (Q13546 whole entry, looked up): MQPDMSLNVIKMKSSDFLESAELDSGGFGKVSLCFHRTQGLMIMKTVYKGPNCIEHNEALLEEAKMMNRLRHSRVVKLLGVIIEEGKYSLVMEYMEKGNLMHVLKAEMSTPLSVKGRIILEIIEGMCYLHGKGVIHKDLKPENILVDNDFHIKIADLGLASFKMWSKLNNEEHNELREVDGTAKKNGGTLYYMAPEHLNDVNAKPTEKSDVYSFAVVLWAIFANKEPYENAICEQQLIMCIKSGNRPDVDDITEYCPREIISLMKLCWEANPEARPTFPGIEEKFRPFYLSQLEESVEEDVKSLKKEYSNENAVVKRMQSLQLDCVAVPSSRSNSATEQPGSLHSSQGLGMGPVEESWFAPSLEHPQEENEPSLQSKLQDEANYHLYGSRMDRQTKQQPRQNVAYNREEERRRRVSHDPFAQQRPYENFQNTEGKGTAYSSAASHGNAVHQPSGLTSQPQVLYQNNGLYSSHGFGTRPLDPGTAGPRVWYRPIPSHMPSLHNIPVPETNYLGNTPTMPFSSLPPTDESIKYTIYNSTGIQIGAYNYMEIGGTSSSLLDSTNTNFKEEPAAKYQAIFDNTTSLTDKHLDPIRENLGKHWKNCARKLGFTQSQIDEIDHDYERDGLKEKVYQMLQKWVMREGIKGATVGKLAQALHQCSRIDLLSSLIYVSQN

[35] = molecular target: SBK1 (human) (UniProt Q52WX2)
[36] = molecular target: STK17B (human) (UniProt O94768)
[37] = molecular target: SYK (human) (UniProt P43405)
[38] = molecular target: TYK2 JH2 pseudokinase (human) (UniProt P29597)
[39] = molecular target: ZAP70 (human) (UniProt P43403)

Chain of CSNK2A2 (human) (P19784 whole entry, looked up): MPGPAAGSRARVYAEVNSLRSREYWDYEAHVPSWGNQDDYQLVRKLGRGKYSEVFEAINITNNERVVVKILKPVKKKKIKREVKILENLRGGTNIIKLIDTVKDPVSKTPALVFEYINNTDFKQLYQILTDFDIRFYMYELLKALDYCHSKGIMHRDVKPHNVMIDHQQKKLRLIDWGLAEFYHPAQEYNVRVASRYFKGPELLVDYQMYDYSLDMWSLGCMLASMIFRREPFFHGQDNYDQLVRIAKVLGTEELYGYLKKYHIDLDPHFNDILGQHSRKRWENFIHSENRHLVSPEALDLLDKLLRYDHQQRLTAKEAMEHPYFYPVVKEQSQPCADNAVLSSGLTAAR

## C=CC(=O)Nc1cc(-n2c(=O)ccc3cnc4ccc(-c5cn[nH]c5)cc4c32)ccc1C
[1]
  kinase still bound, per cent of control: 82%
[2]
  kinase still bound, per cent of control: 100%
[3]
  kinase still bound, per cent of control: 100%
[4]
  kinase still bound, per cent of control: 100%
[5]
  kinase still bound, per cent of control: 1.2%
[6]
  kinase still bound, per cent of control: 61%
[7]
  kinase still bound, per cent of control: 94%
[8]
  kinase still bound, per cent of control: 1.8%
[9]
  kinase still bound, per cent of control: 94%
[10]
  kinase still bound, per cent of control: 100%
[11]
  kinase still bound, per cent of control: 94%
[12]
  kinase still bound, per cent of control: 50%
[13]
  kinase still bound, per cent of control: 52%
[14]
  kinase still bound, per cent of control: 51%
[15]
  kinase still bound, per cent of control: 73%
[16]
  kinase still bound, per cent of control: 0.7%
[17]
  kinase still bound, per cent of control: 65%
[18]
  kinase still bound, per cent of control: 68%
[19]
  kinase still bound, per cent of control: 38%
[20]
  kinase still bound, per cent of control: 69%
[21]
  kinase still bound, per cent of control: 14%
[22]
  kinase still bound, per cent of control: 91%
[23]
  kinase still bound, per cent of control: 1.9%
[24]
  kinase still bound, per cent of control: 64%
[25]
  kinase still bound, per cent of control: 100%
[26]
  kinase still bound, per cent of control: 0%
[27]
  kinase still bound, per cent of control: 46%
[28]
  kinase still bound, per cent of control: 95%
[29]
  kinase still bound, per cent of control: 2.3%
[30]
  kinase still bound, per cent of control: 4.2%
[31]
  kinase still bound, per cent of control: 2.7%
[32]
  kinase still bound, per cent of control: 89%
[33]
  kinase still bound, per cent of control: 99%
[34]
  kinase still bound, per cent of control: 100%
[35]
  kinase still bound, per cent of control: 90%
[36]
  kinase still bound, per cent of control: 100%
[37]
  kinase still bound, per cent of control: 100%
[38]
  kinase still bound, per cent of control: 36%
[39]
  kinase still bound, per cent of control: 48%
